Laboratory results from patent US4132738A, “Preparation of 15-deoxy-16-hydroxyprostaglandins” (Miles Laboratories, Inc., priority 1978, dated 1979).

Legend:
[1] = system: blood pressure in the hypertensive rat; experiment: Effects on systolic blood pressure in the hypertensive rat; assay type: in vivo; parameters: key: 0: Not significant at any time interval; 1: Significant at one time interval; 2: Significant at two time intervals; conditions: 1 mg/kg intraperitoneal; 2, 4, 6 and 9 hours
Method: The acute anithypertensive activity of test compounds was determined in rats made hypertensive by the procedure of Grollman (Proc. Soc. Exper Biol. Med., 57: 102 [1944]). Female rats weighing between 60 and 100 g were anesthetized with ether, the right kidney approached through a flank retroperitoneal incision, decapsulated and tied with a figure-of-eight-ligature. The animals were left to recover and two weeks later were again anesthetized and the contralateral kidney removed. Four weeks after the second operation the rats were subjected to indirect blood pressure measurements and those showing systolic pressure values greater than 160 mmHg were selected for drug testing.
Blood pressure was measured in the tail with an inflatable occluding cuff placed at the base of the extremity and a pulse detector located distally. The cuff was inflated to approximately 300 mmHg and was slowly deflated until pulsations appeared, indicating the level of systolic pressure; diastolic pressure was not recorded by this procedure. All measurements were carried out in unanesthetized, unsedated animals maintained in a warm environment during the recording procedure and for at least 6 hours before. In all cases, three pressure readings were obtained in succession and mean values were calculated thereof.
Experiments were carried out in groups of five hypertensive rats in which systolic pressure was determined immediately before and 2, 4, 6 and 9 hours after intraperiotoneal administration of the test compound at a dose of 1 mg/kg. Drugs were diluted from stock solutions with phosphate buffer (Lee et. al., Prostaglandins, 29 [1973]), so as to inject this quantity in a volume of 1 ml/kg. Changes from control blood pressure values were calculated for each interval both in mmHg and in percent, and evaluated for significance by means of Wilcoxon's signed rank test (Wilcoxon, R. and Wilcox, R. A., "Some Rapid Approximate Statistical Procedures," Lederle Laboratories, Pearl River [1964]).

[2] = system: gastric secretion in the rat; experiment: Effects on gastric secretion in the rat; assay type: in vivo; conditions: for GAS value, carbinol versus methyl ester analogue: comparison in words
Method: A procedure based on that described by Lipman, W. (J. Pharm. Pharmacol., 21: 335 [1968]) was used to assess the influence of test compounds on gastric secretion. Rats of one sex weighing 150 to 200 g were randomly divided into groups of six animals each and fasted for 48 hours previous to the experiments, water being available ad libitum. The animals were anesthetized with ether, the abdomen opened through a midline incision, and the pylorus ligated. Test compounds were diluted from stock solution so as to administer a dose of 1.5 mg/kg in a volume equivalent to 1 ml/kg. Subcutaneous injections were applied immediately after surgery and again 2 hours later, so that a total dose of 3.0 mg/kg was administered. Dilutions were made with phosphate buffer (pH 7.38) as recommended by Lee et al. (Prostaglandins, 3: 29 [1973]) in order to insure adequate stability of drugs at the subcutaneous depot. Each compound was tested in one group of rats; an additional control group received only the vehicle.
Four hours after pyllric ligation the animals were killed with ether, the cardias ligated, and the stomachs removed. The volume of gastric secretion was measured and the contents centrifuged at 5000 rpm for 10 minutes. Total acid in the supernatant was titrated against a 0.1 N sodium hydroxide solution and the amount expressed in mEq.
Volume and total acid values of the treated group were compared with those of the controls […]. Antisecretory activity was scored according to the following scale: […]

guinea pig trachea = experiment: Effects on the guinea pig trachea in vitro; assay type: cell-based; conditions: comparison in words
Method: A male guinea pig weighing 200-500 g was killed by a blow on the head. A 20 mm length of the trachea was dissected from the animal, transferred to a petri dish containing Krebs' solution (aerated with 95% O2 and 5% CO2 at 37° C.), and cut longitudinally opposite the tracheal muscle. The tissue was then cut transversely three quarters of the distance across, a second cut in the opposite direction (again three quarters of the distance across the tissue) was made and the procedure was continued for the whole tissue. The ends of the trachea were pulled to form a zig-zig shaped strip. The tracheal strip used in the experiment was approximately 30 mm when extended under 0.25-0.5 g load in the tissue bath. Cotton thread was tied to one end of the tissue, and linen thread to the other. It was attached via the linen thread to a glass hook in a 5 ml isolated tissue bath containing Krebs' solution (37° C., aerated with a mixture of 95% O2 and 5% CO2). The opposite end was attached via cotton to an isotonic Harvard transducer (Model 386 Heart/Smooth Muscle Transducer, Harvard Apparatus). The load on the transducer lever was small, usually 0.3 g, with a range of 0.25-0.5 g, and the magnification high, 80 fold using an appropriate twin-channel pen recorder. A minimum of thirty minutes was allowed before applying a test compound to the tissue. Test compounds were then applied (in volumes of 0.5 ml) at thirty minute intervals, being in contact with the tissue for five minutes followed by an overflow washout time of twenty seconds.
Prostaglandin E1, at a bath concentration of 0.1 mcg/ml, was then tested repeatedly on two such strips, obtained from two different animals, until two responses (the values of which are recorded) differing by no more than 25% occur. A test compound was then added to the same two strips at bath concentrations of 0.01, 0.1, 1.0, and 10.0 mcg/ml and the effects of the compound were recorded. After the test compound had been evaluated at the highest concentration, PGE1 was retested at 0.1 mcg/ml (and the value of the response recorded) to insure that the viability of the strips was retained during the experiment. The mean of the effects of the test compound on the two strips was then calculated for each concentration, and, biased on the resulting values, an activity value was assigned as follows: […]

| SMILES | Blood Pressure Hypertensive Rat: activity value [1] | GAS value, carbinol versus methyl ester analogue [2] | Guinea pig trachea value, carbinol versus methyl ester analogue (guinea pig trachea) | GAS activity ([2]; result in words) |
| --- | --- | --- | --- | --- |
| COC(=O)CCCCCC[C@H]1C(=O)C[C@@H](O)[C@@H]1/C=C/CC1(O)CC2CCCCC21 (stereo partly drawn) [TR 4808, Methyl 11α, 16RS-dihydroxy-17, 20-ethano-16, 18-methano-9-oxoprost-13E-en-1-oate] | 0 | – | – | – |
| COC(=O)CCCCCC[C@H]1C(=O)C[C@@H](O)[C@@H]1/C=C/CC1(O)CCCCC1 [TR 4717, Methyl 11α, 16RS-dihydroxy-16, 20-methano-9-oxoprost-13E-en-1-oate] | 0 | – | – | – |
| CCCC(C)C(O)C/C=C/[C@H]1[C@H](O)CC(=O)[C@@H]1CCCCCCCO (stereo partly drawn) [TR 4749, 1, 11α, 16RS-trihydroxy-17RS-methylprost-13E-en-9-one] | 0 | lower | lower | – |
| CCCC(C)(C)C(O)C/C=C/[C@H]1[C@H](O)CC(=O)[C@@H]1CCCCCCCO (single isomer, unassigned) [TR 4752, 1, 11α, 16R or S-trihydroxy-17-dimethylprost-13E-en-9-one] | 0 | – | – | no GAS activity |
| CCCCC(O)C/C=C/[C@H]1[C@H](O)CC(=O)[C@@H]1CCCCCCCO (stereo partly drawn) [TR 4706, 1,11α,16RS-trihydroxyprost-13E-en-9-one] | 0 | the same | the same | – |
| COC(=O)CCCCCC[C@H]1C(=O)C[C@@H](O)[C@@H]1/C=C/CC1(O)CC2C=CCC21 (stereo partly drawn) [TR 4800, Methyl 11α, 16RS-dihydroxy-16, 18-methano-17, 20-methano-9-oxoprosta-13E, 19-dien-1-oate] | 0 | – | – | – |
| CCCCC(C)(O)C/C=C/[C@H]1[C@H](O)CC(=O)[C@@H]1CCCCCCCO (stereo partly drawn) [TR 4698, 16-methyl-1,11α,16RS-trihydroxyprost-13E-en-9-one] | 1 | the same | the same | – |
| COC(=O)CCCCCC[C@H]1C(=O)C[C@@H](O)[C@@H]1/C=C/CC1(O)CC2CCC1C2 (stereo partly drawn) [TR 4883, Methyl 11α,16RS-dihydroxy-16,20-methano-17,20-methano-9-oxoprost-13E-en-1-oate] | 1 | – | – | – |
| O=C1C[C@@H](O)[C@H](/C=C/CC2(O)CCCCC2)[C@H]1CCCCCCCO [TR 4703, 16, 20-Methano-1, 11α, 16-trihydroxyprost-13E-en-9-one] | 0 | – | – | – |
| O=C1C[C@@H](O)[C@H](/C=C/CC2(O)CC3CCCC32)[C@H]1CCCCCCCO (stereo partly drawn) [TR 4799, 16, 18-Methano-17, 20-methano-1, 11α, 16RS-trihydroxyprost-13E-en-9-one] | 0 | – | – | – |
| COC(=O)CCCCCC[C@H]1C(=O)C[C@@H](O)[C@@H]1/C=C/[C@H]1CCCC[C@@H]1O [TR 4767, Methyl 15R, 20-cyclo-11α, 16-trans-dihydro-9-oxoprost-13E-en-1-oate] | 0 | – | – | – |
| CC1CCCC(O)(C/C=C/[C@H]2[C@H](O)CC(=O)[C@@H]2CCCCCCCO)C1 (stereo partly drawn) [TR 4851, 16, 20-Methano-18RS-methyl-1, 11α, 16RS-trihydroxyprost-13E-en-9-one] | 0 | – | – | – |
| CCCC(C)C(O)C/C=C/[C@H]1[C@H](O)CC(=O)[C@@H]1CCCCCCC(=O)OC (stereo partly drawn) [TR 4814, Methyl 11α, 16RS-dihydroxy-17-methyl-9-oxoprost-13E-oate, reference compound] | 1 | – | – | – |
